Laboratory results from US5786371A, “Pyridine and pyridazine derivatives, processes for the production thereof and pharmaceutical agents containing these compounds” (Boehringer Mannheim GmbH, priority 1995, dated 1998).
Like-named read-outs stand apart in the source and are kept apart here.

Target: GpIIb/IIIa receptor (Homo sapiens, UniProt P05106+P08514)
Test: GpIIb/IIIa-Fibrinogen-Elisa (inhibition of fibrinogen-GpIIb/IIIa interaction)
Assay type: binding
Conditions: 1 hour incubation, optical density at 405 nm
Experimental: Microtitre plates are coated overnight with 2 μg/ml isolated activated GpIIb/IIIa receptor. After removing the unbound receptor by washing several times, the surface of the plates is blocked with 1% casein and washed again. The test substance is added in the required concentrations and the plates are incubated for 10 minutes while shaking. The natural ligand of the gpIIb/IIIa receptor, fibrinogen, is added. After 1 hour of incubation the unbound fibrinogen is removed by washing several times and the bound fibrinogen is determined by a peroxidase-conjugated anti-fibrinogen monoclonal antibody by measuring the optical density at 405 nm in an ELISA instrument. Inhibition of a fibrinogen-GpIIb/IIIa interaction results in a low optical density. An IC50 is calculated based on a concentration-effect curve.
The GpIIb/IIIa-Fibrinogen-Elisa is a modification of assays described in the following literature:
Nachman, R. L. & Leung, L. L. K. (1982): Complex formation of platelet membrane glycoproteins IIb and IIIa with fibrinogen. J. Clin. Invest. 69:263-269. Wright, P. S. et al. (1993): An echistatin C-terminal peptide activated GpIIbIIIa binding to fibrinogen, fibronectin, vitronectin and collagen type I and type IV. Biochem. J. 293:263-267.

[1] = isolated activated GpIIb/IIIa receptor on microtitre plates, read-out: IC50

Chain of GpIIb/IIIa receptor (P08514 32-887 limits assumed): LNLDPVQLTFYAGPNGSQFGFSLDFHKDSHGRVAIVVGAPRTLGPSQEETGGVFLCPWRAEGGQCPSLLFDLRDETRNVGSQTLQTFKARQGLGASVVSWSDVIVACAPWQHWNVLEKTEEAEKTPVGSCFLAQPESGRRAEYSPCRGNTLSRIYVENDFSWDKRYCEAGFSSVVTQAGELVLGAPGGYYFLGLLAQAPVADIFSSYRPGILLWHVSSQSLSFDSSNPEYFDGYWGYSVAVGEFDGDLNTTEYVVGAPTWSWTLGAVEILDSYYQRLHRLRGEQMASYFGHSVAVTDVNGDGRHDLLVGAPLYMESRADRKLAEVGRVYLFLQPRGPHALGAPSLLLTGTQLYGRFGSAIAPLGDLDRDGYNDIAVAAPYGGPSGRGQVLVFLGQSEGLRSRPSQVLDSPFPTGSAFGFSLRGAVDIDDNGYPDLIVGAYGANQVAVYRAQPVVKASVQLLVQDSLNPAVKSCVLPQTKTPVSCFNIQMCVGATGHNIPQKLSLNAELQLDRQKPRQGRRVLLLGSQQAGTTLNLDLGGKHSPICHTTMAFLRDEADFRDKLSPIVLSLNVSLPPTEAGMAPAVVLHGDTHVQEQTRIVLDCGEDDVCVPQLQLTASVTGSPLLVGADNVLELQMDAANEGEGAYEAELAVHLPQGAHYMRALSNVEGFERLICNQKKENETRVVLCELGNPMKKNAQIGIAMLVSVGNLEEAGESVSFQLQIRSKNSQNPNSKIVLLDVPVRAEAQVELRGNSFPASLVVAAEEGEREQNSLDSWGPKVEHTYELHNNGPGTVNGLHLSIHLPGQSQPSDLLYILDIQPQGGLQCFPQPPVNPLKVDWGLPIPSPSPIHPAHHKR
Chain of GpIIb/IIIa receptor (P08514 891-1039 limits assumed): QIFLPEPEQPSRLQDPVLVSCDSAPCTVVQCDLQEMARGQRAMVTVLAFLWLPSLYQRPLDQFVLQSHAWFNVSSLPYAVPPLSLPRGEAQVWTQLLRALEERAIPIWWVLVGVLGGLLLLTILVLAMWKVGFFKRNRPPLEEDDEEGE
Chain of GpIIb/IIIa receptor (P05106 27-788): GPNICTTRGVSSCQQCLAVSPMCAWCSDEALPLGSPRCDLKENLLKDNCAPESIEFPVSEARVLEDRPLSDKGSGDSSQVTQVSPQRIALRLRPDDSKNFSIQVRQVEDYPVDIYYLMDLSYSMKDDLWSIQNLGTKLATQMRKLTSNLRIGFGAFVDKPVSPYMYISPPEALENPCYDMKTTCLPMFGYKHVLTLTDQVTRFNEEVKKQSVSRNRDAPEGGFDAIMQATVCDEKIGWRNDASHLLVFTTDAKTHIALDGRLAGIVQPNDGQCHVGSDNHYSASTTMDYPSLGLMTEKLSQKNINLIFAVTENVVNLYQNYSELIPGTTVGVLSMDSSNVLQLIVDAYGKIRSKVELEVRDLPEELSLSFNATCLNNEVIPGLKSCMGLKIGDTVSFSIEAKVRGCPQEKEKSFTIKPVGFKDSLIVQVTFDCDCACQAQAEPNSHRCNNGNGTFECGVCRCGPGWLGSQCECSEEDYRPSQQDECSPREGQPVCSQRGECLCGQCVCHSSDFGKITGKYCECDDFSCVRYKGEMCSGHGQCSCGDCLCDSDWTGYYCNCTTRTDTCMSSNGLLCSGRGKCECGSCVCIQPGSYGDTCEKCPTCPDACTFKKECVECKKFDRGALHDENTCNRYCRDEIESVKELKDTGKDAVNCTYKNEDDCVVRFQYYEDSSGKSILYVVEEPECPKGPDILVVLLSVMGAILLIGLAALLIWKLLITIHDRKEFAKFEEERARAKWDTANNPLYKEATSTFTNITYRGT

Question: For O=C(O)CC1(O)CCC(N2CCC(CCCNc3ccncc3)CC2)CC1 (stereo not shown) [12 (page 35), (1-Hydroxy-4-{4-[3-(pyridin-4-ylamino)-propyl]-piperidin-1-yl}-cyclohexyl)-acetic acid], which IC50 [1] is on record?
Answer: Its IC50 is 200 nM.

Question: O=C(O)CC1(O)CCC(N2CCC(Nc3ccncc3)CC2)CC1 (stereo not shown) [Example 5] was tested. Which IC50 [1] did it give?
Answer: Its IC50 is 140 nM.

Question: O=C(O)CC1(O)CCC(N2CCN(c3ccncc3)CC2)CC1 (stereo not drawn) [cis-1-hydroxy-4-[4-(4-pyridyl)-piperazin-1-yl]-acetic acid, reference compound] was tested. Which IC50 (reference substance, isolated activated GpIIb/IIIa receptor, read-out: IC50 value in the above assay (comparative experiments)) did it give?
Answer: The IC50 was 2500 nM.

Question: For “(4-{3-[(Pyridin-4-ylamino)-propyl]-piperidin-1-yl}-cyclohexyl)-acetic acid [62 (page 40)]”, which IC50 [1] is on record?
Answer: The IC50 was 300 nM.
